For 15 molecules, IC50 results are on record in patent publication US6596772B1, “Phosphate mimics and methods of treatment using phosphatase inhibitors” (Sugen, Inc., priority 1999, dated 2003).

Read-outs that look alike come from different tables or passages of the source. Some results are limits rather than exact numbers.

Test in all cases: PTP IC50 assay, pNPP or FDP as substrate
Holding throughout (assay type): biochemical

In one test the target is T1, PTP SIGMA (Homo sapiens, UniProt Q13332).
T1 construct: made in house; host or cells: E. coli BL-21 (pGEX 6P-1)
T1 sequence (Q13332 1320-1660 limits assumed): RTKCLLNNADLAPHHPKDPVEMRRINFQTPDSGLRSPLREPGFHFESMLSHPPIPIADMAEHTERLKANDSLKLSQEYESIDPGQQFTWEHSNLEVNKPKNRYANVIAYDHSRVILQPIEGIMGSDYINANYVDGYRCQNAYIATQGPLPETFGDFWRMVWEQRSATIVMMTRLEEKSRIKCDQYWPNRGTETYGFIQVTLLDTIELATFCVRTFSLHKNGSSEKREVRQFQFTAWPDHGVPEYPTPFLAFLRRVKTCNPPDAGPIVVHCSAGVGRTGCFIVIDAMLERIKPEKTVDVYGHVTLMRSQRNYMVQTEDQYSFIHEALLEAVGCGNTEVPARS
As for the experimental part:
(§1) The following in vitro assay procedure is preferred to determine the level of activity and effect of the different compounds of the present invention on one or more of the PTPs. Similar assays can be designed along the same lines for any PTP using techniques well known in the art.
(§2) The catalytic assays described herein are performed in a 96-well format. The general procedure begins with the determination of PTP optimal pH using a three-component buffer system that minimizes ionic strength variations across a wide range of buffer pH. Next, the Michaelis-Menten constant, or Km, is determined for each specific substrate-PTP system. This Km value is subsequently used as the substrate reaction concentration for compound screening. Finally, the test PTP is exposed to varying concentrations of compound for fifteen minutes and allowed to react with substrate for ten minutes. The results are plotted as percent inhibition versus compound concentration and the IC50 interpolated from the plot.
(§3) All assays were performed using pNPP or FDP as substrate. The optimum pH was determined for each PTP used.
(§4) PTPase activity was assayed at 25° C. in a 100-μl reaction mixture containing an appropriate concentration of pNPP or FDP as substrate. The reaction was initiated by addition of the PTP and quenched after 10 min by addition of 50 μl of IN NaOH. The non-enzymatic hydrolysis of the substrate was corrected by measuring the control without the addition of the enzyme. The amount of p-nitrophenol produced was determined from the absorbance at 410 nm. To determine the kinetic parameter, Km, the initial velocities were measured at various substrate concentrations and the data were fitted to the Michaelis equation where velocity=(Vmax*[S])/(Km+[S]), and [S]=substrate reaction concentration.
(§5) The effect of the compounds on PTP was evaluated at 25° C. using pNPP or FDP as substrate. PTP was pre-incubated for fifteen minutes with various concentrations of compound. Substrate was then added at a fixed concentration (usually equal to the Km previously calculated). After 10 minutes, NaOH was added to stop the reaction. The hydrolysis of pNPP was followed at 410 nm on the Biotek Powerwave 200 microplate scanning spectrophotometer. The percent inhibition was calculated as follows: Percent Inhibition=[(control signal−compound signal)/control signal] ×100%. The IC50 was then determined by interpolation of a percent inhibition versus compound concentration plot.
(§6) Plasmids designed for bacterial GST-PTP fusion protein expression were derived by insertion of PCR-generated human PTP fragments into pGEX vectors (Pharmacia Biotech). Several of these constructs were then used to subclone phosphatases into pFastBac-1for expression in Sf-9 insect cells. Oligonucleotides used for the initial amplification of PTP genes are shown below. The cDNAs were prepared using the Gilbo BRL superscript preamplification system on RNAs purchased from Clontech.
The PTP Sigma cDNA was amplified from human brain single strand cDNA (Clontech RNA) using the following oligonucleotides: 5′oligo: 5′-[…]-3′ (SEQ ID NO: 12) 3′oligo: 5′-[…]-3′ (SEQ ID NO: 13) and subsequently ligated into pGex 6P-1 Eco RI/Xho I sites.

Another test addresses T2, PTP MU (Homo sapiens, UniProt P28827).
T2 construct: made in house; host or cells: E. coli BL-21 (pGEX 6P-1)
As to the method:
as §1, §2, §3, §4, §5, §6
The PTP Mu cDNA was amplified from a human lung cDNA library (Clontech) using the following oligonucleotides; 5′oligo: 5′-[…]-3′ (SEQ ID NO: 18) 3′oligo: 5′-[…]-3′ (SEQ ID NO: 19) It was subsequently ligated into the Eco RI/Xho I sites of pGEX 6P-1.

Another test deals with T3, PTP 1B (Homo sapiens, UniProt P18031).
T3 construct: made in house; host or cells: Sf-9 insect cells (pFastBac-G2T)
T3 sequence (P18031 1-435): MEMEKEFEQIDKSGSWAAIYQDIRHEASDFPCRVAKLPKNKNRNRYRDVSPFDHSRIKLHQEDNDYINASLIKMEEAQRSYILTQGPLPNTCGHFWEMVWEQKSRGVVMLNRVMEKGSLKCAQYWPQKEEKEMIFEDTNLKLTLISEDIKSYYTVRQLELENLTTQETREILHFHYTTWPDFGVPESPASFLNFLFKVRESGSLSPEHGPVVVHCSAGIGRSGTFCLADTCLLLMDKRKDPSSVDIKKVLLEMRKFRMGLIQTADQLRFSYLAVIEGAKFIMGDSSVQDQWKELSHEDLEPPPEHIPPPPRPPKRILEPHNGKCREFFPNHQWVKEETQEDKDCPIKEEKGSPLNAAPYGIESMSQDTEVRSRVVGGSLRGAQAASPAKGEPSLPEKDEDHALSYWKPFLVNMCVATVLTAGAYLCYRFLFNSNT
As for the experimental part: as §1, §2, §3, §4, §5, §6
The PTP1b cDNA was amplified from human placenta single strand cDNA (Clontech RNA) using the following oligonucleotides: 5′oligo: 5′-[…] (SEQ ID NO: 4) 3′oligo: 5′-[…] (SEQ ID NO: 5) It was subsequently ligated into pFasBac G2TBamH1Xba-1 sites.

The target of another test is T4, PTP BETA (Homo sapiens, UniProt P23467).
T4 construct: The catalytic domain was amplified using the following oligonucleotides; made in house; host or cells: E. coli BL-21 (pGEX 6P-1)
As to the method: as §1, §2, §3, §4, §5, §6
The PTP Beta cDNA used has been described earlier (Levy et al., 1993, J. Biol. Chem, 268:10573-10581). The catalytic domain was amplified using the following oligonucleotides: 5′oligo: 5′-[…]-3′ (SEQ ID NO: 16) 3′oligo: 5′-[…]-3′ (SEQ ID NO: 17) and subsequently cloned into the Eco RI/Xho I sites of pGEX 6P-1.

Setting [1] is: pNPP or FDP as substrate, 25° C., read-out: PTP IC50 Sigma.
Setting [2] is: pNPP or FDP as substrate, 25° C., read-out: PTP IC50 Mu.
Setting [3] is: pNPP or FDP as substrate, 25° C., read-out: PTP IC50 1B.
Where [4] appears, read: pNPP or FDP as substrate, 25° C., read-out: PTP IC50 Beta.

T2 sequence (P28827 831-1186 limits assumed): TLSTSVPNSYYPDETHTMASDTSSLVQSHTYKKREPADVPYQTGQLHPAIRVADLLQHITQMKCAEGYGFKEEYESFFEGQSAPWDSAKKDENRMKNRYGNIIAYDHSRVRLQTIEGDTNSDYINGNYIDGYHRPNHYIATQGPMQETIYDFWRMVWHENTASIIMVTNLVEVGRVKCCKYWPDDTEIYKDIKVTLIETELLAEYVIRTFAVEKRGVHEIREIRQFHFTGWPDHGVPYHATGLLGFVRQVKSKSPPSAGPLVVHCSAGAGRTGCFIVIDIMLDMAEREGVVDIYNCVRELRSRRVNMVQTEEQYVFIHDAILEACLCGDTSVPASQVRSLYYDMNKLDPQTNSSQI
T4 sequence (P23467 1653-1997): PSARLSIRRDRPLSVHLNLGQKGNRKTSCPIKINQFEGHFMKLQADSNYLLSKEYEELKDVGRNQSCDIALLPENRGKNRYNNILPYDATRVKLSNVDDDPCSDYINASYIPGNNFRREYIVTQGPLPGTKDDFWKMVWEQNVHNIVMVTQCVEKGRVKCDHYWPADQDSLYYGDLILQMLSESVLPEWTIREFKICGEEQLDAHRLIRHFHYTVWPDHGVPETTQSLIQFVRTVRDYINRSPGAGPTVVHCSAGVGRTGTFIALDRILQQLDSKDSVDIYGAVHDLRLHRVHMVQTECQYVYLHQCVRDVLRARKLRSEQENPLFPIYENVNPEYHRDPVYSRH

In general, IC50 refers to the concentration that inhibits the measured activity by half. In the case of “1-(4-Aminophenoxy)-4-trifluoromethylsulfonamidophenoxy benzene [Example 72]”, the IC50 at PTP SIGMA (setting [1]) is 41.1 µM; at PTP MU (setting [2]) it was more than 100 µM; at PTP 1B (setting [3]) it was 28.2 µM; on PTP BETA (setting [4]) it was 22.7 µM.

Take `O=[N+]([O-])c1cc(S(=O)(=O)C(F)(F)F)ccc1OC1CCC(Oc2ccc(S(=O)(=O)C(F)(F)F)cc2[N+](=O)[O-])C1` (mixture of isomers) [Example 12, 1,3-Bis-(2-nitro-4-trifluoromethanesulfonyl-phenoxy)-cyclopentane]: the IC50 at PTP SIGMA (setting [1]) was 91.7 µM; on PTP MU (setting [2]) it was more than 100 µM; at PTP 1B (setting [3]), more than 100 µM; at PTP BETA (setting [4]), 17.9 µM.

Consider `CS(=O)(=O)Nc1ccc(Oc2ccc(Oc3ccc(NS(C)(=O)=O)cc3)cc2)cc1` [CH3SO2NH—], for which the IC50 on PTP SIGMA (comparison of R groups, read-out: IC50 Sigma) is 22 µM; at PTP MU (comparison of R groups, read-out: IC50 Mu) it was more than 100 µM; on PTP 1B (comparison of R groups, read-out: IC50 1B), 51.9 µM; on PTP BETA (comparison of R groups, read-out: IC50 Beta), 62.6 µM.

Consider `O=S(=O)(c1ccc(COCc2ccc(S(=O)(=O)C(F)(F)F)cc2)cc1)C(F)(F)F` [Example 1, Bis (4-trifluoromethylsulfonylbenzyl) ether], for which the IC50 on PTP SIGMA (setting [1]) was more than 100 µM; on PTP MU (setting [2]) it was more than 100 µM; on PTP 1B (setting [3]) it was more than 100 µM; on PTP BETA (setting [4]) it was 5.9 µM.

Turning to `O=S(=O)(c1ccc(COc2ccc(S(=O)(=O)C(F)(F)F)cc2)cc1)C(F)(F)F` [Example 2, 4-Trifluoromethylsulfonylbenzyl 4-trifluoromethylsulfonylphenyl ether], the IC50 was 30.5 µM at PTP SIGMA (setting [1]), more than 100 µM at PTP MU (setting [2]), 55.7 µM at PTP 1B (setting [3]) and 3.5 µM on PTP BETA (setting [4]).

For `O=C(c1ccccc1)N(Cc1ccc(S(=O)(=O)C(F)(F)F)cc1)Cc1ccc(S(=O)(=O)C(F)(F)F)cc1` [Example 3, N,N-Bis(4-trifluoromethylsulfonylbenzyl)benzamide], the IC50 on PTP SIGMA (setting [1]) is 42.6 µM; on PTP MU (setting [2]) it was more than 100 µM; at PTP 1B (setting [3]), 44.9 µM; on PTP BETA (setting [4]), 17.2 µM.

As for `O=S(=O)(c1ccc(CCc2ccc(S(=O)(=O)C(F)(F)F)cc2)cc1)C(F)(F)F` [Example 4, 1,2-Bis(4-trifluoromethylsulfonylphenyl)ethane], the IC50 is 81.1 µM at PTP SIGMA (setting [1]), more than 100 µM at PTP MU (setting [2]), more than 100 µM at PTP 1B (setting [3]) and 6.8 µM on PTP BETA (setting [4]).

As for `O=C(NCc1ccc(S(=O)(=O)C(F)(F)F)cc1)c1ccc(S(=O)(=O)C(F)(F)F)cc1` [Example 5, N-(4-Trifluoromethylsulfonylbenzyl)-4-trifluoromethylsulfonylbenzamide], the IC50 is more than 100 µM on PTP SIGMA (setting [1]), more than 100 µM on PTP MU (setting [2]), more than 100 µM on PTP 1B (setting [3]) and 44.8 µM at PTP BETA (setting [4]).

As for `O=C(NCc1ccc(S(=O)(=O)C(F)(F)F)cc1)c1ccccc1` [Example 6, N-(4-Trifluoromethylsulfonylbenzyl)benzamide], the IC50 on PTP SIGMA (setting [1]), on PTP MU (setting [2]), on PTP 1B (setting [3]) and at PTP BETA (setting [4]) was more than 100 µM throughout.

Turning to `O=[N+]([O-])c1cc(S(=O)(=O)C(F)(F)F)ccc1SSc1ccc(S(=O)(=O)C(F)(F)F)cc1[N+](=O)[O-]` [Example 8, Bis-(2-nitro-4-trifluoromethylsulfonylphenyl) disulfide], the IC50 on PTP SIGMA (setting [1]) was 27.7 µM; at PTP MU (setting [2]), more than 100 µM; at PTP 1B (setting [3]), 46.8 µM; on PTP BETA (setting [4]), 26.5 µM.

As for `COC(=O)c1cc(Oc2ccc(S(=O)(=O)C(F)(F)F)cc2)cc(Oc2ccc(S(=O)(=O)C(F)(F)F)cc2)c1` [Example 9, 3,5-Bis-(4-trifluoromethanesulfonyl-phenoxy)-benzoic acid methyl ester], the IC50 is 49.9 µM on PTP SIGMA (setting [1]), more than 100 µM on PTP MU (setting [2]), more than 100 µM on PTP 1B (setting [3]) and 45.6 µM at PTP BETA (setting [4]).

Consider `COC(=O)Cc1cc(Oc2ccc(S(=O)(=O)C(F)(F)F)cc2[N+](=O)[O-])cc(Oc2ccc(S(=O)(=O)C(F)(F)F)cc2[N+](=O)[O-])c1` [Example 10, [3,5-Bis-(2-nitro-4-trifluoromethanesulfonyl-phenoxy)-phenyl]-acetic acid methyl ester], for which the IC50 at PTP SIGMA (setting [1]) was 33.8 µM; at PTP MU (setting [2]), more than 100 µM; on PTP 1B (setting [3]), more than 100 µM; on PTP BETA (setting [4]) it was 20.5 µM.

For the molecule `COC(=O)c1cc(Oc2ccc(S(=O)(=O)C(F)(F)F)cc2[N+](=O)[O-])cc(Oc2ccc(S(=O)(=O)C(F)(F)F)cc2[N+](=O)[O-])c1` [Example 11, 3,5-Bis-(2-nitro-4-trifluoromethanesulfonyl-phenoxy)-benzoic acid methyl ester], the IC50 is 24.1 µM at PTP SIGMA (setting [1]), more than 100 µM at PTP MU (setting [2]), more than 100 µM at PTP 1B (setting [3]) and 11.2 µM on PTP BETA (setting [4]).

For `COC(=O)c1c(Oc2ccc(S(=O)(=O)C(F)(F)F)cc2[N+](=O)[O-])cc(C)cc1Oc1ccc(S(=O)(=O)C(F)(F)F)cc1[N+](=O)[O-]` [Example 13, 4-Methyl-2,6-bis-(2-nitro-4-trifluoromethanesulfonyl-phenoxy)-benzoic acid methyl ester], the IC50 was 84.5 µM at PTP SIGMA (setting [1]), 76 µM at PTP MU (setting [2]), more than 100 µM at PTP 1B (setting [3]) and 15.1 µM on PTP BETA (setting [4]).

`COC(=O)c1ccc(OCCOc2ccc(S(=O)(=O)C(F)(F)F)cc2[N+](=O)[O-])cc1` [Example 14, 4-[2-(2-nitro-4-trifluoromethanesulfonyl-phenoxy)-ethoxy]-benzoic acid methyl ester]: the IC50 was 6.75 µM on PTP SIGMA (setting [1]), more than 100 µM at PTP MU (setting [2]), more than 100 µM at PTP 1B (setting [3]) and 13.4 µM at PTP BETA (setting [4]).
